Values after ≈ are worked out from the molar mass of the structure shown. Where a SMILES comes first, the peptide text is derived from it. [ ]: non-standard residue; d: D form. A value given as a limit tells only on which side of the number the result lay.

Data set [1] in a line: RP-HPLC retention time as measure of hydrophobicity. In kind it is physicochemical. As to conditions: analytical Kromasil C18 column 4.6 mm × 250 mm, 5.0 μm, acetonitrile, flow 1.0 mL/min, used as measure of hydrophobicity. The method, then:
The hydrophobicities of the peptides in solution were reliably mirrored by their high-performance liquid chromatography (HPLC)retention times. The retention times for peptide HI2, HW2, HV2, HF2, and PG-1 were 11.13, 10.55, 12.20, 18.06 and 12.56 min, respectively, indicating the following hydrophobic order: HF2 > PG-1 > HV2 > HI2 > HW2(Table 1).
The designed peptides were synthesized and purified by GL Biochem (Shanghai, China). Acetonitrile was used on an analytical Kromasil C18 column (4.6 mm × 250 mm, 5.0 μm, LC 3000, Beijing, China), and the purity of the peptides was determined to be greater than 95% via reversed-phase high-performance liquid chromatography (RP-HPLC) with a flow rate of 1.0 mL/min. The experimental molecular weights of the peptides were evaluated via ESI-MS analysis, and these values were very close to the calculated masses. Next, the peptides were dissolved in deionized water at a concentration of 2.56 mM, and the peptide solutions were stored at −20 °C.

For data set [2], the system named is E. coli ATCC25922. Briefly: microbe, parasite or virus in culture. As to conditions: ATCC25922, 24 h. The method, then: (§1) The minimum inhibitory concentration (MIC) was measured using a broth microdilution method to determine the in vitro antimicrobial activity of the peptides. Bacteria were inoculated into MHB and incubated overnight at 37 °C until the bacteria were in log phase growth. Next, we corrected the bacterial concentration to approximately 1 × 10^5 CFU/mL using MHB. The peptides were added to 96-well plates containing 0.01% acetic acid and 0.2% bovine serum albumin at final concentrations ranging from 0.25 to 128 μM. After incubation at 37 °C for 24 h, the absorbance was measured at 492 nm using a microplate reader (Tecan GENios F129004, Tecan, Austria). Broth containing microbes and […] were used as positive and negative controls, respectively. The lowest peptide concentration with no increase in absorbance compared to that of the negative control was defined as the MIC. The experiments were independently performed three times.

The test system of data set [3] is E. coli K88. Briefly: microbe, parasite or virus in culture. As to conditions: E. coli K88; MHB, about 1 × 10^5 CFU/mL, 37 °C, 24 h; three independent experiments. Here is the method:
as §1

The test system of data set [4] is E. coli K99. Briefly: microbe, parasite or virus in culture. As to conditions: E. coli K99; MHB, about 1 × 10^5 CFU/mL, 37 °C, 24 h; three independent experiments. The method, then:
as §1

Data set [5] has as its system E. coli UB1005. Briefly: microbe, parasite or virus in culture. To be noted: UB1005, 24 h. The method, then: as §1
In data set [6] the test system is P. aeruginosa ATCC27853. In words: microbe, parasite or virus in culture. As to conditions: ATCC27853, 24 h. Here is the method:
as §1

Data set [7] deals with S. aureus ATCC29213. In words: microbe, parasite or virus in culture. As to conditions: ATCC29213, 24 h. The method, then:
as §1

Data set [8] concerns S. epidermidis ATCC12228. Briefly: microbe, parasite or virus in culture. As to conditions: ATCC12228, 24 h. Here is the method:
as §1

Data set [9] relates to S. pullorum C7913. Briefly: microbe, parasite or virus in culture. As to conditions: C7913, 24 h. Here is the method:
as §1

Data set [10] has as its system Gram-negative bacteria. In words: MICs against Gram-negative strains (geometric mean, range). Type of data set: cell-based. Here is the method:
as §1

In data set [11] the test system is Gram-positive and Gram-negative bacteria. To be noted: 24 h. Here is the method:
as §1

Data set [12] relates to Gram-positive bacteria. To be noted: 24 h. Here is the method:
as §1

In data set [13] the test system is E. coli ATCC25922. Briefly: Salt sensitivity assay (MIC in presence of physiological salts). In kind it is cell-based. Also on record: unit not given here. The method, then:
Bacteria were inoculated into MHB and incubated overnight at 37 °C until the bacteria were in log phase growth. Next, we corrected the bacterial concentration to approximately 1 × 10^5 CFU/mL using MHB. […] After incubation at 37 °C for 24 h, the absorbance was measured at 492 nm using a microplate reader (Tecan GENios F129004, Tecan, Austria). Broth containing microbes and […] were used as positive and negative controls, respectively. The lowest peptide concentration with no increase in absorbance compared to that of the negative control was defined as the MIC. The experiments were independently performed three times. The effects of salt ions on the antibacterial activities of the antimicrobial peptides were evaluated. Different salt ion concentrations were added to BSA peptide dilutions, and the next steps followed the MIC measurement method. […] These tests were independently repeated three times.

Data set [14] deals with TNF-α production in RAW264.7 cells. Briefly: Inhibition of endotoxin-induced inflammation (LPS-stimulated TNF-α production). Type of data set: cell-based, murine. As to conditions: 32 μM peptide, 100 ng/mL LPS, 18 h, 37 °C, ELISA. Here is the method: TNF-α production by the RAW264.7 cells was stimulated with LPS to evaluate the LPS neutralization characteristics of the peptides. Briefly, (1.0–2.0) × 10^5 RAW264.7 cells were plated in 96-well plates and stimulated with LPS (100 ng/mL) for 18 h at 37 °C in the absence or presence of peptides (2–64 μM). The negative and positive controls were untreated cells and cells treated with LPS alone. The supernatant was used to evaluate the endotoxin neutralizing ability of the antimicrobial peptides by analyzing the TNF-α production using […] ELISA (Boster, Wuhan, China).
(ELISA stands for enzyme-linked immunosorbent assay.)

Data set [15] concerns E. coli ATCC25922. Briefly: SEM characterization of cell morphology. In kind it is cell-based. To be noted: E. coli ATCC25922, 1 × MIC (HV2 8 μM, PG-1 4 μM), 1 h. The method, then: For the SEM sample preparation, E. coli ATCC25922 cells were cultured at 37 °C to mid-log phase in MH broth with constant shaking at 220 rpm, centrifuged at 1000 g and then adjusted to an OD600 of 0.1–0.2 in PBS. […] Bacteria incubated with PBS served as controls. After the incubation, the mixture was centrifuged at 5000 g for 5 min, and the collected bacteria were washed three times with PBS. Approximately 2.5% (w/v) glutaraldehyde was added for fixation at 4 °C overnight, followed by washing three times with PBS. The samples were dehydrated with 50%, 70%, 90%, 100% ethanol for 10 min. A mixture of ethanol and tert-butanol was added to the dried bacterial cells for 30 min, and then t-butanol was added for 1 h. Finally, the samples were dehydrated and coated with liquid CO2 in a critical point dryer and then observed using a Hitachi S-4800 SEM (Hitachi, Tokyo, Japan).

With `CC(C)[C@H](NC(=O)CNC(=O)[C@H]1CCCN1C(=O)[C@@H](NC(=O)[C@H](Cc1c[nH]cn1)NC(=O)[C@@H](NC(=O)[C@H](Cc1c[nH]cn1)NC(=O)[C@@H](NC(=O)[C@H](CCCNC(=N)N)NC(=O)[C@@H](N)CCCNC(=N)N)C(C)C)C(C)C)C(C)C)C(=O)N[C@@H](Cc1c[nH]cn1)C(=O)N[C@H](C(=O)N[C@@H](Cc1c[nH]cn1)C(=O)N[C@H](C(=O)N[C@@H](CCCNC(=N)N)C(=O)N[C@@H](CCCNC(=N)N)C(N)=O)C(C)C)C(C)C` [HV2] (H-RRVHVHV[dP]GVHVHVRR-NH2; N-terminus assumed), the “Retention Time” value in data set [1] was found to be 12.20 min. For the same compound, the MIC in data set [2] was 8 µM (≈ 15.5 µg/mL); in data set [3] it was 4 µM (≈ 7.76 µg/mL); in data set [4], 8 µM (≈ 15.5 µg/mL); in [5] it was 8 µM (≈ 15.5 µg/mL); in [6], 8 µM (≈ 15.5 µg/mL); in data set [7], greater than 128 µM. The MIC was greater than 128 µM in data set [8] and 8 µM (≈ 15.5 µg/mL) in data set [9]. For the same compound, the “MBC (GM), geometric mean of MICs, Gram (−)” value in data set [10] (Gram-negative strains, 256 μM used where no activity at 128 μM) came out at 7.13 µM. In data set [10] (range over the Gram-negative strains of Table 2), the “MIC against Gram-negative bacteria” value was in the range of 4 to 8 µM. Further, in data set [11], the “MBC (GM), geometric mean of MICs, Gram (+,−)” value is 23.52 µM. Besides, the “MBC (GM), geometric mean of MICs, Gram (+)” value in data set [12] is 256 µM. Further, the “MIC, FeCl3” value in [13] (E. coli ATCC25922, 4 μM FeCl3, unit not given) is listed as 4. For the same compound, in data set [13] (E. coli ATCC25922, 6 μM NH4Cl, unit not given), the “MIC, NH4Cl” value is listed as 4. The “MIC, ZnCl2” value in data set [13] (E. coli ATCC25922, 8 μM ZnCl2, unit not given) is 1. The “MIC, MgCl2” value in data set [13] (E. coli ATCC25922, 1 mM MgCl2, unit not given) is reported as 8. Moreover, the “MIC, KCl” value in data set [13] (E. coli ATCC25922, 4.5 mM KCl, unit not given) was found to be 4. Also, the “MIC, NaCl” value in data set [13] (E. coli ATCC25922, 150 mM NaCl, unit not given) was determined as 4. Also, the “MIC, Control” value in data set [13] (E. coli ATCC25922, absence of physiological salts, no unit printed in Table 3 (Table 2 MIC in μM)) turned out to be 8. In addition, in data set [14], the “neutralizing activity against LPS (TNF-α level)” value is listed as roughly 100%. Besides, the “cell morphology by SEM” value in data set [15] was “rough and wrinkled”.

The record behind these values is PMC6718988, “Bioactivity and Bactericidal Mechanism of Histidine-Rich β-Hairpin Peptide Against Gram-Negative Bacteria” (International Journal of Molecular Sciences, 2019).
